This is an account of results in patent US20230365533A1, “BICYCLOHEPTANE PYRROLIDINE OREXIN RECEPTOR AGONISTS” (MERCK SHARP & DOHME CORP., priority 2021, published 2023).

The target of the assay is T1, human OX2R (Homo sapiens, UniProt O43614).
T1 construct: expressed in transfected cells; host or cells: CHO (Chinese hamster ovary) cells, grown under G418 selection
T1 sequence (O43614 1-444): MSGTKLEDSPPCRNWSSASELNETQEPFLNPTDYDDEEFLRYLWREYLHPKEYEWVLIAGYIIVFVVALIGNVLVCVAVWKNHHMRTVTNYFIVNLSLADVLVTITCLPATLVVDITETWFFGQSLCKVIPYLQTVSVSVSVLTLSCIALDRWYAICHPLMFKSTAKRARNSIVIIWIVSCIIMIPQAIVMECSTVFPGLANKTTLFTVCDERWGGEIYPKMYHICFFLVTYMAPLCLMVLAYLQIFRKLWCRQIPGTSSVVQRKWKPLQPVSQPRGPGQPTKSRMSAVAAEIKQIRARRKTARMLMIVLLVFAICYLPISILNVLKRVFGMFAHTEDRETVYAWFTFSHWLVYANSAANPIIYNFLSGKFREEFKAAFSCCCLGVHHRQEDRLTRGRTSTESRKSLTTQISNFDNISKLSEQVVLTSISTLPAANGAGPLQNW
Briefly: IPOne (IP-1) orexin receptor agonist assay in CHO cells expressing human OX2R. Format: cell-based. Conditions: IPOne assay, CHO cells expressing human OX2R, 2 hours incubation; read-out: hoX2R_IP IC50. Summed up:
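CHO cells with human OX2R treated 2 h at 37 °C with 10-point ½-log compound dilutions in stimulation buffer; IP-1 accumulation read by HTRF (665/620 nm) after 60 min detection. EC50 from four-parameter fit; % effect versus a 1 uM reference agonist.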
The IC50 is the concentration needed to halve the response being measured. In the case of `CC(OC(=O)N1[C@H](C)C[C@H](NS(C)(=O)=O)[C@@H]1CO[C@H]1CC[C@@]2(c3ncc(F)cn3)C[C@H]2C1)C(F)F` (stereo partly drawn) [Example 63, 1,1-Difluoropropan-2-yl (2R,3S,5R)-2-((((1S,3S,6R)-6-(5-fluoropyrimidin-2-yl)bicyclo[4.1.0]heptan-3-yl)oxy)methyl)-5-methyl-3-(methylsulfonamido)pyrrolidine-1-carboxylate], the IC50 came to 0.77 nM.

On to `C[C@@H]1C[C@H](NS(C)(=O)=O)[C@H](CO[C@H]2CC[C@@]3(c4ncc(F)cn4)C[C@H]3C2)N1C(=O)OCC(C)(F)F` [Example 64, 2,2-difluoropropyl (2R,3S,5R)-2-((((1S,3S,6R)-6-(5-fluoropyrimidin-2-yl)bicyclo[4.1.0]heptan-3-yl)oxy)methyl)-5-methyl-3-(methylsulfonamido)pyrrolidine-1-carboxylate], for which the IC50 was 2.1 nM.

On to `C[C@@H]1C[C@H](NS(C)(=O)=O)[C@H](CO[C@H]2CC[C@@]3(c4ncc(F)cn4)C[C@H]3C2)N1C(=O)OCC(F)(F)F` [Example 65, 2,2,2-trifluoroethyl (2R,3S,5R)-2-((((1S,3S,6R)-6-(5-fluoropyrimidin-2-yl)bicyclo[4.1.0]heptan-3-yl)oxy)methyl)-5-methyl-3-(methylsulfonamido)pyrrolidine-1-carboxylate], for which the IC50 was found to be 1.6 nM.

On to `C[C@@H]1C[C@H](NS(C)(=O)=O)[C@H](CO[C@H]2CC[C@@]3(c4ncc(F)cn4)C[C@H]3C2)N1C(=O)OCC(F)F` [Example 66, 2,2-difluoroethyl (2R,3S,5R)-2-((((1S,3S,6R)-6-(5-fluoropyrimidin-2-yl)bicyclo[4.1.0]heptan-3-yl)oxy)methyl)-5-methyl-3-(methylsulfonamido)pyrrolidine-1-carboxylate], for which the IC50 stood at 0.6 nM.

For `COC(=O)N1[C@H](C)C[C@H](NS(C)(=O)=O)[C@@H]1COC1CCC2(c3nc4c(F)ccc(F)c4s3)CC2C1` (stereo partly drawn) [Example 71, methyl (2R,3S,5R)-2-(((6-(4,7-difluorobenzo[d]thiazol-2-yl)bicyclo[4.1.0]heptan-3-yl)oxy)methyl)-5-methyl-3-(methylsulfonamido)pyrrolidine-1-carboxylate], the IC50 was 832 nM.

`COC(=O)N1[C@H](C)C[C@H](NS(C)(=O)=O)[C@@H]1COC1CCC2(c3ncc(Cl)c(C(F)(F)F)n3)CC2C1` (stereo partly drawn) [Example 72, methyl (2R,3S,5R)-2-(((6-(5-chloro-4-(trifluoromethyl)pyrimidin-2-yl)bicyclo[4.1.0]heptan-3-yl)oxy)methyl)-5-methyl-3-(methylsulfonamido)pyrrolidine-1-carboxylate]: the IC50 came to 187 nM.

On to `COC(=O)N1[C@H](C)C[C@H](NS(C)(=O)=O)[C@@H]1COC1CCC2(c3ncc(F)c(C(F)F)n3)CC2C1` (stereo partly drawn) [Example 73, methyl (2R,3S,5R)-2-(((6-(4-(difluoromethyl)-5-fluoropyrimidin-2-yl)bicyclo[4.1.0]heptan-3-yl)oxy)methyl)-5-methyl-3-(methylsulfonamido)pyrrolidine-1-carboxylate], for which the IC50 came to 220 nM.

With `COC(=O)N1[C@H](C)C[C@H](NS(C)(=O)=O)[C@@H]1COC1CCC2(c3ncc(F)c(C4CC4)n3)CC2C1` (stereo partly drawn) [Example 74, methyl (2R,3S,5R)-2-(((6-(4-cyclopropyl-5-fluoropyrimidin-2-yl)bicyclo[4.1.0]heptan-3-yl)oxy)methyl)-5-methyl-3-(methylsulfonamido)pyrrolidine-1-carboxylate], the IC50 came out at 299 nM.

For `COC(=O)N1[C@H](C)C[C@H](NS(C)(=O)=O)[C@@H]1COC1CCC2(c3ncc(OC(F)F)c(C)n3)CC2C1` (stereo partly drawn) [Example 75, methyl (2R,3S,5R)-2-(((6-(5-(difluoromethoxy)-4-methylpyrimidin-2-yl)bicyclo[4.1.0]heptan-3-yl)oxy)methyl)-5-methyl-3-(methylsulfonamido)pyrrolidine-1-carboxylate], the IC50 was determined as 257 nM.
